Patent US20240423988A1, “Improvement of Tumor Immunogenicity by Means of Splicing-Controlling Compound” (Kyoto University, priority 2021, published 2024)

Experiments:
tumor cells = conditions: cited from earlier work
[1] = test system: splenocytes (CD8^+ and CD4^+ T cells); experiment: Ex vivo splenocyte culture assay (antigen-independent T cell activation); type: cell-based, mice; conditions: 24 hours, flow cytometry
CD8^+ T cells = experiment: IFN-γ ELISpot assay; type: cell-based; conditions: splenocytes of vaccinated mice co-cultured with peptide-pulsed BMDCs
Method: The 22 splice-neoantigen candidates and a melanoma antigen peptide, tyrosinase-related protein 2 (TRP2) 180-188, serving as a positive control, were synthesized. […] mice were vaccinated twice with the synthesized peptides in the presence of Poly(I:C) as an adjuvant. Then, splenocytes were prepared from the vaccinated mice and co-cultured with peptide-pulsed bone marrow-derived dendritic cells (BMDCs) for 24 hours, and the activation of CD8^+ T cells was evaluated using an IFN-γ ELISpot assay (FIG. 5-1A).
Eight-week-old female C57BL/6N mice were subcutaneously injected with 100 μg of synthesized peptides (Genscript Japan) and 50 μg of poly(I:C) formulated in PBS (5 peptides/mouse) on days 0 and 7. H2-K^b TRP-2180-188 peptide (MBL International, Woburn, MA) was used as a positive control. Mice were sacrificed 12 days after the initial injection, and splenocytes were isolated. As stimulators, bone marrow-derived dendritic cells (BMDCs) were generated as described previously, with some modifications. Briefly, bone marrow cells were isolated from femurs of the 8-week-old female C57BL/6N mice through centrifugation on day 2. Cells were passed through a 70-um cell strainer and seeded in 10-cm petri dishes with RPMI1640 containing 10% FBS, 100 U/mL P/S, 2 mM L-glutamine, 50 μM 2-ME, and 20 ng/ml Gm-csf (Peprotech, Rocky Hill, NJ). Culture was maintained by replacing half of the medium every 2 or 3 days. On day 12, most of the nonadherent cells had acquired typical dendritic morphology, and these cells were pulsed with peptides (2 μg/ml) for 2 hours at 37° C. ELISpot assay was performed using a Mouse IFN-γ ELISpot BASIC kit (Mabtech AB, Nacka Strand, Sweden) as per the manufacturer's instructions. Freshly isolated splenocytes (5× 10^5 cells) were co-incubated with peptide-pulsed BMDCs (4×10^4 cells) overnight at 37° C. under 5% CO2 conditions in an ELISpot PVDF white plate coated with anti-IFN-γ antibody (clone AN18). Then, IFN-γ secretion was detected using a […] (clone R^4-6A2) and a BCIP/NBT-plus substrate. After leaving the plate to dry, the spot number was counted using a dissection microscope. Spot images were acquired using an ImmunoSpot S6 Ultimate Analyzer (Cellular Technology Limited, Cleveland, OH).

MC38 cells [2] = experiment: Co-culture assay for tumor-killing activity, peptide-pulsed target cells; type: cell-based, murine; conditions: for tumor-killing responses, individual epitopes: MC38 pulsed with individual peptide, hexavalent peptide-reactive effector cells
Text: [FIG. 6-1] FIG. 6. Hexavalent vaccination of inducible splice-neoepitopes promotes Compound 1-induced cancer immune responses. A: A schema for the cancer-killing assay. B and C: Representative flow cytometric images showing tumor-killing activity mediated by antigen-elicited effector cells (B) and their quantitative data of annexin V^+/CFSE^+ frequency (C) are indicated (n=3/group). Hexavalent (Kifc1^−, Nf1^−, Acbd4^−, Rfx7^−, Qpct1^−, and Nup153-derived) peptides or an irrelevant Trp2180-188 peptide was used to elicit antigen-reactive effector cells. CFSE-labeled MC38 cells were stimulated with either 0.1% DMSO or hexavalent peptides for 2 hours and then co-cultured with effector cells for 24 hours. Annexin V was used for monitoring early and late apoptotic cell frequencies. *** represents p<0.001. D: For the nontargeting control (NC) or B2M KO clone (n=3/group), annexin V^+/CFSE^+ frequencies in the same experimental condition as (C) are shown. ** represents p<0.01.
[FIG. 7] A: In vitro tumor-killing activity mediated by individual splice-neoantigens. Quantitative data of annexin V^+/CFSE^+ frequencies are shown (n=3/group). CFSE-labeled MC38 cells, with or without IFN-pretreatment, were further stimulated with either 0.1% DMSO, hexavalent peptides, or individual peptides for 2 hours, and then co-cultured with hexavalent peptide-reactive effector cells for 24 hours. Data are shown as the mean±SEM. Experiments were performed at least twice. B: Tumor suppressive effect by hexavalent or individual splice-neoantigen vaccination. Tumor volumes of mice on day 23 are shown. Mice were subcutaneously vaccinated with 100 μg of peptide and 50 μg of Poly(I:C) on days 11 and 18. In groups indicated by (−), 5% DMSO was injected instead of peptide. Compound 1 ([…]) or vehicle control (0.1% DMSO) was intratumorally given once daily. Data are shown as the mean±SEM (n=7/group). Experiments were performed once.
Splenocytes were prepared from mice vaccinated with either hexavalent splice-neoantigens or an irrelevant Tpr2180-188 antigen, and then further stimulated with BMDCs pulsed with the same antigen(s) in the presence of IL-2. Tumor-killing activity was quantified based on the frequency of Annexin V^+/CFSE^+24 hours after co-culture with antigen(s)-elicited effector cells and CFSE-prelabeled target cells. […] As a result, this tumor-killing activity was absent for the B2m KO MC38 cells (FIG. 6-1D).
Splenocytes were prepared from peptide(s)-vaccinated mice inoculated with Poly(I:C) on day 14, as described in the section of “ELISpot assay”. To further elicit antigen-specific CD8^+ T cells, freshly isolated splenocytes were co-cultured with peptide(s)-pulsed bone marrow-derived dendritic cells (BMDCs) in the presence of 10 ng/ml IL-2 (Peprotech) for another 7 days. Culture was maintained by replacing half of the medium every 2 or 3 days. Splenocytes stimulated with BMDCs, as effector cells, were then co-cultured with target cells at an effector target ratio of 5:1 for 24 hours to examine their lytic activity. For the preparation of target cells, in the previous day of co-culture with effector cells, cells were labeled with […] carboxyfluorescein diacetate succinimidyl ester (CFSE; Dojindo) for 10 minutes, and incubated with FBS for additional 10 minutes to stop the labeling reaction. After washing with medium twice, cells were cultured overnight in the presence of 10 ng/ml IFN-γ. The next day, target cells were pulsed with 10 ng/ml peptide(s) for 2 hours prior to co-culture or treated with Compound 1 in the presence of effector cells. After 24 hours of co-culture, cells were stained with annexin V (Biolegend) in an annexin V binding buffer for 15 minutes and subjected to flow cytometry analysis. Effector cell-mediated killing activity was calculated from the frequencies of annexin V^+/CFSEt.

[3] = test system: various murine cancer cell lines (LLC, Pan02, WEHI3, CT26, EG7, B16, MC38); experiment: RNA-seq analysis of splice-neoantigen producing events in various murine cancer cell lines; type: cell-based
Method: [FIG. 5-2] Continuation of FIG. 5. D and E: RT-PCR analysis for splice-neoantigen coding forms (splice-NA forms) in MC38 cells treated with 10 µM Compound 1 or vehicle control (0.1% DMSO) for 6 hours. Actb served as a loading control. * represents p<0.05, ** represents p<0.01, and *** represents p<0.001. F: Splice-neoantigen producing rates calculated from RNA-seq data (n=3 biological replicates) are indicated as the APSI (Compound 1-DMSO). All data are shown as the mean±SEM. All experiments were performed at least twice. Statistical significance was determined using unpaired Student's t-test for (B) and (E).
Then, whether the Compound 1-induced splice-neoantigens are shared across cancer type was examined using murine lung carcinoma LLC, pancreatic ductal adenocarcinoma Pan02, leukemia WEHI3, colorectal adenocarcinoma CT26, lymphoma EG7, and skin melanoma B16 cells.
The effects of Compound 2 on RNA splicing events (splicing alterations) producing the aforementioned six splice-neoantigens in various murine cancer cell lines were investigated through RNA-Seq analysis in the same manner as in FIG. 5-2F, except that Compound 1 was replaced with Compound 2 (FIG. 8).

MC38 cells [4] = experiment: IFN-γ signaling and expression of MHC class I components and PD-L1 in MC38 cells; type: cell-based, murine
Text: MHC class I expressed in cancer cells is critical for neoantigen presentation, which is indispensable for CD8^+ T cell-dependent immune surveillance and tumor killing. To investigate whether Compound 1 modulates the neoantigen presentation pathway, first, the effects of Compound 1 on IFN-γ signaling and the expression of MHC class I components, including […] (B2M) and H2-K^b in MC38 cells, were examined because CD8^+ T cell-secreted IFN-γ is a major inducer of MHC class I components. […] In contrast, any changes in the expression of PD-L1 were not detected in host dendritic cells or macrophages. […] However, these alterations were likely not the functional mechanisms through which Compound 1 exerts its antitumor effects (FIGS. 1-2O and 1-2P), as enhanced antitumor effects of Compound 1 were observed when co-administered with αPD-L1.

NS(=O)(=O)c1ccc(S(=O)(=O)Nc2cccc3c(Cl)c[nH]c23)cc1 [Indisulam]
splicing events and splice-neoantigens in tumor cells (tumor cells): diversely alters splicing events and generates splice-neoantigens

concanavalin A [concanavalin A (ConA), reference compound]
CD44^+ and CD69^+ marker expressions in CD8^+ and CD4^+ T cells [1]: promoted

SQPLPNKIGF (listed as Mus musculus) [Nup153, splice-neoantigen peptide derived from altered splicing of Nup153]
immunogenicity, IFN-γ ELISpot (CD8^+ T cells): immunogenic
tumor-killing responses, individual epitopes (MC38 cells [2]): significantly triggered the tumor-killing responses

MALSNKAYV (listed as Mus musculus) [Kifc1, splice-neoantigen peptide derived from altered splicing of Kifc1]
immunogenicity, IFN-γ ELISpot (CD8^+ T cells): immunogenic
tumor-killing responses, individual epitopes (MC38 cells [2]): significantly triggered the tumor-killing responses

RNRSHIFPL (listed as Mus musculus) [Nf1, splice-neoantigen peptide derived from altered splicing of Nf1]
immunogenicity, IFN-γ ELISpot (CD8^+ T cells): immunogenic
tumor-killing responses, individual epitopes (MC38 cells [2]): significantly triggered the tumor-killing responses

SILGFTMV (listed as Mus musculus) [Acbd4, splice-neoantigen peptide derived from altered splicing of Acbd4]
immunogenicity, IFN-γ ELISpot (CD8^+ T cells): immunogenic
tumor-killing responses, individual epitopes (MC38 cells [2]): significantly triggered the tumor-killing responses

KQQELFVLL (listed as Mus musculus) [Qpct1, splice-neoantigen peptide derived from altered splicing of Qpctl]
immunogenicity, IFN-γ ELISpot (CD8^+ T cells): immunogenic

N=C1NC(=O)/C(=C/c2ccc3c(c2)CCO3)S1 [Compound 2]
splicing alterations of the Kifc1 gene producing peptides containing MALSNKAYV ([3]; MC38 and B16): markedly observed
splicing alterations of the Rfx7 gene producing peptides containing SLLLLYLQL ([3]; all the cancer cell lines): markedly observed
production of splice-neoantigens ([3]; various murine cancer cell lines, RNA-Seq): increases the production of splice-neoantigens

CC(C)Oc1ccc(-c2c[nH]cc2CN(C)CCN)cc1 [MS-023]
splicing events and splice-neoantigens in tumor cells (tumor cells): diversely alters splicing events and generates splice-neoantigens

Tpr2: melanoma antigen peptide, tyrosinase-related protein 2 (TRP2) 180-188; control antigen (SVYDFFVWL; UniProt P29812 180-188, looked up, fragment) [reference compound]
tumor-killing activity of antigen-elicited effector cells (MC38 cells [2]; MC38 cells presenting six splice-neoepitopes, 24 hours co-culture, Annexin V^+/CFSE^+): did not exhibit any response

SLLLLYLQL (listed as Mus musculus) [Rfx7, splice-neoantigen peptide derived from altered splicing of Rfx7]
immunogenicity, IFN-γ ELISpot (CD8^+ T cells): immunogenic
tumor-killing responses, individual epitopes (MC38 cells [2]): significantly triggered the tumor-killing responses

B1: IFN-γ: interferon-γ, major inducer of MHC class I components (protein, UniProt P01579 24-161, looked up)
Interferon gamma: QDPYVKEAENLKKYFNAGHSDVADNGTLFLGILKNWKEESDRKIMQSQIVSFYFKLFKNFKDDQSIQKSVETIKEDMNVKFFNSNKKKRDDFEKLTNYSVTDLNVQRKAIHELIQVMAELSPAAKTGKRKRSQMLFRG
phosphorylation of STAT1 and STAT3 and expression of B2M protein (MC38 cells [4]): robustly induced
